{"source": "patent US10317393B2", "about": "“Alkynyl sugar analogs for labeling and visualization of glycoconjugates in cells” (Academia Sinica, priority 2007, dated 2019)", "key": {"Jurkat cells [1]": {"test_system": "Jurkat cells", "experiment": "Flow cytometry of cell surface labeling after click with biotin azide probe 6 and fluorescein-conjugated streptavidin", "type": "cell-based, human", "description": "In another exemplary implementation, a method for labeling fucosylated glycoconjugates at the cell surface is disclosed. In one aspect, Jurkat cells are grown in the presence of derivatized alkynyl Fuc 1. After treatment, cells are subjected to CuAAC (click chemistry) to couple biotinylated azido probe 6 with any alkynyl Fuc-bearing glycoconjugates, and stained with fluorescein-conjugated streptavidin.\nLabeling alkynyl Fuc-bearing cell surface glycoconjugates is illustrated in FIGS. 1A, 1B, 1C and 1D. FIGS. 1A, 1B, 1C and 1D show analysis of cells tagged with Fuc analogs analyzed by monitoring fluorescence intensity with flow cytometry after labeling with a biotin azide probe 6 and staining cells with fluorescein-conjugated streptavidin. […] Without being bound by theory, incorporation of the derivatized Fuc analogs into fucosylated glycoconjugates likely occurs via the Fuc salvage pathway.\nIt is now disclosed in one exemplary implementation of the disclosure that treating cells with derivatized alkynyl ManNAc 4 results in derivatized alkyne-bearing sialyl glycoconjugates. In one aspect of the method, cells are treated with 4 at various concentrations for one to 3 days. Modified sugar analogs and probes used in this disclosure are shown in Scheme 1. Tagging of the cell surface glycoconjugates by derivatized alkynyl ManNAc is illustrated in FIGS. 2A, 2B, 2C and 2D. FIGS. 2A, 2B, 2C and 2D show analysis of cells labeled with ManNAc analogs analyzed by monitoring fluorescence intensity with flow cytometry after clicking on the biotin azide probe 6 and staining cells with fluorescein-conjugated streptavidin. […] Compared with the MFI of controls, there was significant labeling on cells treated with derivatized alkynyl ManNAc 4, even at concentrations as low as 3 micromolar (15-fold increase). […] The optimal concentration of 4 for tagging sialyl glycoconjugates falls between 25 and 50 micromolar.\n(§1) Jurkat cells were cultivated (2×10^6/10 ml) in RPMI medium 1640 supplemented with 10% FCS and various concentrations of peracetylated alkynyl sugars 1, 2, or 4 or native sugars 3 or 5, for 1-3 days at 37° C. Cells were then harvested, washed with 0.1% FCS/PBS, and resuspended (10^6 cells) in 100 microliters of click reaction solution (0.1 mM biotin probe 6 or fluorogenic probe 7/0.1 mM Tris-thiazoleamine catalyst/0.1 mM CuSO4/0.5 mM sodium ascorbate, in PBS). The reaction was incubated at room temperature for 30 min, and then the cells were washed twice with 0.1% FCS/PBS. Cells treated with biotin probe 6 were subsequently stained with fluorescein-conjugated streptavidin (0.5 microgram per sample in 50 microliters of 1% FCS/PBS) for 30 min at 4° C., and washed three times with 1% FCS/PBS. Data were acquired by BD LSR II with FACSDiva software, and were analyzed by CellQuestPro software (BD Biosciences). Detection of fluorescent adduct with probe 7 was monitored with a 408 nm laser and a 440/40 bandpass filter for excitation and emission, respectively."}, "Jurkat cells [2]": {"test_system": "Jurkat cells", "experiment": "Cell growth analysis after treatment with sugar analogs (cell numbers counted)", "type": "cell-based, human", "conditions": "for toxicity (growth rate): 3 days", "description": "FIGS. 1A, 1B, 1C and 1D show analysis of cells labeled with Fuc analogs. […] Jurkat cells were grown in the presence of 200 micromolar each Fuc analog for 3 days before cell numbers were counted. The data represent the percentage of treated cells vs. untreated cells (n=4).\nIt is also disclosed how treatment with exogenous Fuc analog affects cell growth rate. […] In contrast, the addition of 200 micromolar azido Fuc 2 inhibits cell growth considerably, by 65% when compared with the untreated cells. […] Such toxicity may lead to global change in expression, therefore a nontoxic probe is preferable for accurate probing of glycoconjugate expression.\nas §1"}, "cell extracts": {"test_system": "cell extracts", "experiment": "Labeling and detection of glycoconjugates in cell extracts (SDS/PAGE, Western blot)", "type": "cell-based", "conditions": "200 micromolar Fuc or 25 micromolar ManNAc analogs, 3 days", "text": "Because the herein disclosed labeling system enables the identification of cellular glycoconjugates, it can also serve well in glyco-proteomic applications aimed at discovering unknown glycosylated targets for diagnostic and therapeutic purposes. […] Soluble lysate fractions are labeled with biotin probe 6, fluorogenic probe 7, or a standard azido-derivatized rhodamine probe used in proteomics before separating proteins by SDS/PAGE. […] Positive fluorescent signal was also detected in alkynyl positive protein lysate when labeled with fluorogenic 3-azido-7-hydroxycoumarin 7 and rhodamine probes (FIG. 6B and FIG. 11). […] Moreover, further processing, including a streptavidin/avidin enrichment or gel slice purification, will allow for comparative identification by proteomic mass spectrometry techniques of unknown glycoconjugates expressed at different cell status, for instance, un-differentiated verses differentiated cells, or normal verses cancer cells.\nCells were seeded at 3×10^6/8 ml per 10-cm dish and treated with control and test sugars (200 micromolar Fuc 3 vs. alkynyl derivatized Fuc 1, or 25 micromolar ManNAc 5 vs. alkynyl derivatized ManNAc 2) in growth medium at 37° C. […] Signal was developed with SuperSignal Chemiluminescent Substrate and detected by exposure to x-ray film. […] Rhodamine gels were analyzed."}, "Jurkat cells [3]": {"test_system": "Jurkat cells", "experiment": "Flow cytometry of cell surface labeling with fluorogenic coumarin probe 7", "type": "cell-based, human", "conditions": "200 micromolar Fuc analogs or 25 micromolar ManNAc analogs, 3 days", "text": "FIGS. 3A and 3B show tagging of cell surface glycans by derivatized alkynyl sugar analogs and subsequent labeling with probe 3-azido-7-hydroxycoumarin 7. Shown is flow cytometry analysis of Jurkat cells tagged with 200 micromolar derivatized alkynyl Fuc 1 shown in FIG. 3A or 25 micromolar alkynyl-derivatized ManNAc 4 shown in FIG. 3B for 3 days. The fluorescence intensity was detected after labeling with a coumarin probe 7. Filled histogram, cells treated with control sugar analog 3 or 5; open histogram, cell treated with alkynyl-derivatized sugar 1 or 4.\nRecently, another click-activated azido-derivatized fluorescent probe, based on coumarin, was reported in the literature. In one aspect of the disclosure, the fluorogenic probe, 3-azido-7-hydroxycoumarin 7, is used as the coupling partner for alkynyl tags on labeled glycoconjugates.\nJurkat cells were cultivated (2×10^6/10 ml) in RPMI medium 1640 supplemented with 10% FCS and various concentrations of peracetylated alkynyl sugars 1, 2, or 4 or native sugars 3 or 5, for 1-3 days at 37° C. […] Data were acquired by BD LSR II with FACSDiva software, and were analyzed by CellQuestPro software (BD Biosciences). Detection of fluorescent adduct with probe 7 was monitored with a 408 nm laser and a 440/40 bandpass filter for excitation and emission, respectively."}}}
{"smiles": "C#CCCC(=O)N[C@@H]1C(OC(C)=O)O[C@H](COC(C)=O)[C@@H](OC(C)=O)[C@@H]1OC(C)=O", "note": "(some centres unmarked) [alkynyl ManNAc 4, 1,3,4,6-tetra-O-acetyl-N-4-pentynoylmannosamine]", "values": [{"measurement": "increase of MFI compared with controls", "setting": "Jurkat cells [1]; 3 micromolar", "value": 15, "unit": "fold"}, {"measurement": "dose dependency of glycan tagging", "setting": "Jurkat cells [1]; 3 days", "value": "Dose-dependent labeling"}, {"measurement": "fluorescence intensity / cell surface signal compared with control sugar-treated cells", "setting": "Jurkat cells [1]; biotin probe 6/fluorescein-streptavidin", "value": "specific signal on the cell surface"}, {"measurement": "toxicity (growth rate)", "setting": "Jurkat cells [2]; above 100 micromolar", "value": "more toxic"}, {"measurement": "toxicity to cells (summary statement)", "setting": "Jurkat cells [2]; at levels required for efficient labeling", "value": "not toxic"}, {"measurement": "toxicity (growth rate)", "setting": "Jurkat cells [2]; between 25 and 50 micromolar", "value": "little or no toxicity"}, {"measurement": "labeling signal in proteins by Western blot or fluorescence", "setting": "cell extracts", "value": "specific biotin-labeling signals"}, {"measurement": "fluorescent labeling after reacting with 3-azido-7-hydroxycoumarin probe", "setting": "Jurkat cells [3]", "value": "significant fluorescent labeling"}]}
